Experimental data taken from ChEMBL document CHEMBL1126639, “Centrally acting serotonergic and dopaminergic agents. 2. Synthesis and structure-activity relationships of 2,3,3a,4,9,9a-hexahydro-1H-benz[f]indole derivatives” (J Med Chem, 1993).

What was measured:
[1] = system: Mus musculus; assay: Antagonism of apomorphine for 10-20 minutes in reserpinized mice when a dose of 3.2 micro mol/kg is administered intraperitoneally; type: functional
[2] = system: Mus musculus; assay: Ability to stimulate dopaminergic systems by effect on locomotor activity in reserpinized mice when a dose of 3.2 micro mol/kg is administered intraperitoneally; type: functional
[3] = system: Mus musculus; assay: Antagonism of apomorphine for 10-20 minutes in reserpinized mice when a dose of 0.03 micro mol/kg is administered intraperitoneally; type: functional
[4] = system: Mus musculus; assay: Antagonism of apomorphine for 10-20 minutes in reserpinized mice when a dose of 0.3 micro mol/kg is administered intraperitoneally; type: functional
[5] = system: Mus musculus; assay: Ability to stimulate dopaminergic systems by effect on locomotor activity in reserpinized mice when a dose of 0.3 micro mol/kg is administered intraperitoneally; type: functional
[6] = system: Rattus norvegicus; assay: Effect on the synthesis rates of serotonin in the rat ventral limbic brain region 3.2 micro mol/kg. Values are given as percent change from the control; type: functional, Limbic system
[7] = system: Mus musculus; assay: Antagonism of apomorphine in reserpinized mice when a dose of 3.2 micro mol/kg is administered intraperitoneally; type: functional
[8] = system: Mus musculus; assay: Antagonism of apomorphine in reserpinized mice when a dose of 0.3 micro mol/kg is administered intraperitoneally; type: functional
[9] = system: Mus musculus; assay: Antagonism of apomorphine for 0-10 minutes in reserpinized mice when a dose of 0.03 micro mol/kg is administered intraperitoneally; type: functional
[10] = system: Mus musculus; assay: Antagonism of apomorphine for 10-20 minutes in reserpinized mice when a dose of 32 micro mol/kg is administered intraperitoneally; type: functional
[11] = system: Mus musculus; assay: Ability to stimulate dopaminergic systems by effect on locomotor activity in reserpinized mice when a dose of 32 micro mol/kg is administered intraperitoneally; type: functional
[12] = system: Mus musculus; assay: Ability to stimulate dopaminergic systems by effect on locomotor activity in reserpinized mice when a dose of 0.03 micro mol/kg is administered intraperitoneally; type: functional
[13] = system: Mus musculus; assay: Antagonism of apomorphine in reserpinized mice when a dose of 0.03 micro mol/kg is administered intraperitoneally; type: functional
[14] = system: Rattus norvegicus; assay: Effect on the synthesis rates of dopamine in the rat ventral limbic brain region at 3.2 micro mol/kg; type: functional, Limbic system
[15] = system: Mus musculus; assay: Antagonism of apomorphine for 0-10 minutes in reserpinized mice when a dose of 3.2 micro mol/kg is administered intraperitoneally; type: functional
[16] = system: Mus musculus; assay: Antagonism of apomorphine in reserpinized mice when a dose of 32 micro mol/kg is administered intraperitoneally; type: functional
[17] = system: Mus musculus; assay: Antagonism of apomorphine for 0-10 minutes in reserpinized mice when a dose of 32 micro mol/kg is administered intraperitoneally; type: functional
[18] = system: Mus musculus; assay: Antagonism of apomorphine for 0-10 minutes in reserpinized mice when a dose of 0.3 micro mol/kg is administered intraperitoneally; type: functional
[19] = system: Rattus norvegicus; assay: Inhibition of firing rates of dopaminergic neurons in the substantia nigra pars compacta by intravenous injection in rats.; type: functional
[20] = system: Mus musculus; assay: Time of effect in the face-to-face behavioral assay in the mouse when a dose of 0.0 micro mol/kg is administered perorally; type: functional
[21] = system: Mus musculus; assay: Maximum decrease in temperature when compound is administered subcutaneously; type: functional
[22] = biological target: T1, D(2) dopamine receptor (Rattus norvegicus, UniProt P61169); assay: Compound was evaluated for the binding affinity against [3H]raclopride-labeled dopamine receptor D2 in rat striatum; type: tissue-based
T1 sequence (P61169 whole entry): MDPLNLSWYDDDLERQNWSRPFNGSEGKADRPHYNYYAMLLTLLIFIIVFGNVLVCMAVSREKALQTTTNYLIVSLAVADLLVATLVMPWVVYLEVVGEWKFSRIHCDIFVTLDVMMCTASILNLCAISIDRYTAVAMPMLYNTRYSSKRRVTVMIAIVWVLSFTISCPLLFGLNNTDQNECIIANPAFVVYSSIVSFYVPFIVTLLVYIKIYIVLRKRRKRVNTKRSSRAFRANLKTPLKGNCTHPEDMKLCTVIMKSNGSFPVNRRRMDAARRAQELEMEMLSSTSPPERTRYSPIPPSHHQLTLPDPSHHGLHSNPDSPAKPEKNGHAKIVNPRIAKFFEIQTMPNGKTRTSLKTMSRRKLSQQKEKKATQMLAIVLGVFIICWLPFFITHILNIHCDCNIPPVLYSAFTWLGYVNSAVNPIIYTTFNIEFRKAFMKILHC

[23] = system: Mus musculus; assay: Effective dose on hypothermia in mouse when administered through peroral route; type: functional
[24] = system: Mus musculus; assay: Effective dose on hypothermia in mouse when administered subcutaneously; type: functional
[25] = system: Mus musculus; assay: Time of effect in the isolation-induced aggression behavioral assay in the mouse when a dose of 10 micro mol/kg is administered perorally; type: functional
[26] = system: Mus musculus; assay: Time of effect in the face-to-face behavioral assay in the mouse when a dose of 34 micro mol/kg is administered perorally; type: functional
[27] = system: Mus musculus; assay: Maximum decrease in temperature when compound is administered through peroral route; type: functional
[28] = system: Mus musculus; assay: Time of effect in the face-to-face behavioral assay in the mouse when a dose of 0.3 micro mol/kg is administered perorally; type: functional
[29] = system: Mus musculus; assay: Time of effect in the face-to-face behavioral assay in the mouse when a dose of 3.4 micro mol/kg is administered perorally; type: functional
[30] = system: Mus musculus; assay: Time of effect in the isolation-induced aggression behavioral assay in the mouse when a dose of 3.4 micro mol/kg is administered perorally; type: functional
[31] = system: Mus musculus; assay: Time of effect in the isolation-induced aggression behavioral assay in the mouse when a dose of 0.4 micro mol/kg is administered intraperitoneally; type: functional
[32] = species: Mus musculus; assay: Time of effect in the face-to-face behavioral assay in the mouse […]; type: functional
[33] = system: Rattus norvegicus; assay: Effect on the synthesis rates of dopamine (DOPA accumulation) in the rat ventral limbic brain region at 10.7 micro mol/kg.; type: functional, Limbic system
[34] = system: Rattus norvegicus; assay: Inhibition of firing rates of serotonergic neurons in the dorsal raphe nucleus by intravenous injection in rats; type: functional; conditions: Rattus norvegicus, Dorsal raphe nucleus, iv; read-out: ED50
[35] = system: Felis catus; assay: Maximum decrease of sympathetic nerve activity (SND) in anesthetized cat; type: functional; parameters: scale not given: the % may be the effect or the level left
[36] = system: Mus musculus; assay: Time of effect in the face-to-face behavioral assay in the mouse when a dose of 0.4 micro mol/kg is administered subcutaneously; type: functional
[37] = system: Mus musculus; assay: Time of effect in the isolation-induced aggression behavioral assay in the mouse when a dose of 36 micro mol/kg is administered intraperitoneally (*,p<0.05); type: functional
[38] = system: Mus musculus; assay: Time of effect in the isolation-induced aggression behavioral assay in the mouse when a dose of 36 micro mol/kg is administered perorally; type: functional
[39] = system: Rattus norvegicus; assay: Effect on the synthesis rates of serotonin in the rat ventral limbic brain region 10.7 micro mol/kg.; type: functional, Limbic system
[40] = system: Mus musculus; assay: Time of effect in the isolation-induced aggression behavioral assay in the mouse when a dose of 3.6 micro mol/kg is administered intraperitoneally (*,p<0.05); type: functional
[41] = system: Mus musculus; assay: Time of effect in the face-to-face behavioral assay in the mouse when a dose of 3.6 micro mol/kg is administered subcutaneously; type: functional
[42] = system: Mus musculus; assay: Time of effect in the isolation-induced aggression behavioral assay in the mouse when a dose of 0.0 micro mol/kg is administered perorally; type: functional
[43] = system: Felis catus; assay: Maximum decrease of arterial blood pressure at sympathetic nerve activity (SND) in anesthetized cat has been observed following 1 mg/kg dose; type: functional; parameters: scale not given: the % may be the effect or the level left
[44] = system: Mus musculus; assay: Time of effect in the isolation-induced aggression behavioral assay in the mouse when a dose of 3.6 micro mol/kg is administered perorally; type: functional
[45] = biological target: T1, D(2) dopamine receptor; assay: Binding affinity for [3H]raclopride-labeled dopamine receptor D2 in rat striatum; type: tissue-based
[46] = system: Mus musculus; assay: Time of effect in the isolation-induced aggression behavioral assay in the mouse when a dose of 11 micro mol/kg is administered perorally; type: functional
[47] = system: Mus musculus; assay: Time of effect in the face-to-face behavioral assay in the mouse when a dose of 36 micro mol/kg is administered subcutaneously; type: functional
[48] = system: Mus musculus; assay: Time of effect in the isolation-induced aggression behavioral assay in the mouse when a dose of 0.0 micro mol/kg is administered intraperitoneally; type: functional

## CN1CCc2cccc3c2[C@H]1Cc1ccc(O)c(O)c1-3 [APOMORPHINE]
[1]
  Locomotor activity: 42
[2]
  Locomotor activity: 1777
[3]
  Locomotor activity: 86
[4]
  Locomotor activity: 96
[5]
  Locomotor activity: 150
[6]
  Control: 17%
[7]
  Locomotor activity: 139
[8]
  Locomotor activity: 135
[9]
  Locomotor activity: 78
[10]
  Locomotor activity: 66
[11]
  Locomotor activity: 1184
[12]
  Locomotor activity: 22
[13]
  Locomotor activity: 119
[14]
  Control: -55%
[15]
  Locomotor activity: 52
[16]
  Locomotor activity: 113
[17]
  Locomotor activity: 69
[18]
  Locomotor activity: 73
[19]
  ED50: 0.031 µmol/kg

## COc1cccc2c1C[C@H]1CCN(CC3CC3)[C@@H]1C2 (racemic)
[20]
  Time: 1 s
[21]
  Max temperature decrease: 7
[22]
  Ki: > 1 µM
[23]; Mus musculus, po, read-out: ED50
  ED50: 25 µmol/kg
[24]; Mus musculus, sc, read-out: ED50
  ED50: 19 µmol/kg
[25]
  Time: 177 s
[26]
  Time: 1.5 s
[27]
  Max temperature decrease: 6.2
[28]
  Time: 0.9 s
[29]
  Time: 1.6 s
[30]
  Time: 58 s

## C=CCN1CC[C@@H]2Cc3c(cccc3OC)C[C@H]21 (racemic)
[31]
  Time: 3 s
[32]
  Time: 0.9 s
[33]
  Control: -26
[34]
  ED50: 0.14 µmol/kg
[35]
  Control: 78%
[36]
  Time: 1.5 s
[21]
  Max temperature decrease: 7.8
[37]
  Time: 522 s
[38]
  Time: 393 s
[23]
  ED50: 4.6 µM/kg
[24]
  ED50: 2.6 µM/kg
[39]
  Control: -39
[40]
  Time: 147 s
[27]
  Max temperature decrease: 9.9
[41]
  Time: 3.6 s
[42]
  Time: 73 s
[43]
  Control: 63%
[44]
  Time: 88 s
[45]
  Ki: > 1 µM
[46]
  Time: 218 s
[47]
  Time: 6.9 s
[48]
  Time: 3 s
